# Columns and labels:
# Abcd1 null mice = experiment: Immunoblot (Western blot) of ER stress and UPR markers in spinal cords of X-ALD mice; assay type: in vivo; settings: diet with 0.4 % (wt/wt) TUDCA for 3 months
# From the text: The generation and genotyping of Abcd1 null mice have been previously described (Pujol A. et al., Hum Mol Genet 2002; 11:499-505, Lu JF. et al., Proc.Natl.Acad.Sci.U.S.A 1997; 94:9366-9371.). Mice used for experiments were of a pure C57BL/6J background. Abcd1 null and WT mice were separated into control and treated groups. Treated groups were fed with a mixture of antioxidants that included 1000 iu/kg Vitamin E and 0.5% α-lipoic acid in the diet and 1% N-acetyl-cysteine (NAC) in water. Daily feedings were initiated at 8 months of age and were continued for 4 months until sacrifice.
# (§1) The bile acid tauroursodeoxycholic acid TUDCA (Prodotti Chimici e Alimentari S.p.A., Italy) was mixed into AIN-76A chow (Dyets) at 0.4% w/w. Male mice were randomly assigned to one of the following groups: wild-type mice (n=10) that received normal AIN-76A chow, Abcd1^-/- mice (n=10) that received normal AIN-76A chow and Abcd1^-l- mice (n=10) that received AIN-76A chow containing TUDCA. The animals were treated for 3 months starting at 9 months of age to assess its effect on the progression of the biochemical signs of X-linked adrenoleukodystrophy. […]
# Tissues were lysed in ice-cold RIPA buffer (50 mM Tris-HCl, pH 8, 12 mM deoxycholic acid, 150 mM NaCl and 1% NP40, supplemented with Complete Protease Inhibitor Cocktail, Roche) using a Teflon-on-glass homogenizer and then centrifuged at 1500 x g for 10 min at 4°C. The protein concentration was determined using a BCA protein assay kit (Thermo Fisher Scientific, Inc.). […]
# To determine whether ER stress is regulated by redox imbalance in vivo, the inventors treated with antioxidants during 4 months the presymptomatic Abcd1 null mice at 8 months of age. Next, they assessed by Western Blots the presence of ER stress and UPR responses.
# The mouse model of the disease, the Abcd1 null mouse, develops a late onset axonopathy that resembles the most frequent X-linked adrenoleukodystrophy phenotype, AMN. […] Then, the inventors determined the protein levels of ER stress marker dysregulated in the Abcd1 null mice. […]
# Abcd1^-/Abcd2^-/- mice [1] = experiment: Immunohistochemistry of axonal degeneration, microgliosis and astrocytosis in spinal cord; assay type: in vivo; settings: 17-month-old double knockout mice, 0.4% w/w TUDCA in chow for 4 months from 13 months of age
# Experimental: (§2) The bile acid tauroursodeoxycholic acid TUDCA (Prodotti Chimici e Alimentari S.p.A., Italy) was mixed into AIN-76A chow (Dyets) at 0.4% w/w. Male mice were randomly assigned to one of the following groups: wild-type mice (n=10) that received normal AIN-76A chow, Abcd1^-/- mice (n=10) that received normal AIN-76A chow and Abcd1^-l- mice (n=10) that received AIN-76A chow containing TUDCA. The animals were treated for 3 months starting at 9 months of age to assess its effect on the progression of the biochemical signs of X-linked adrenoleukodystrophy. The double knockout mice and their control littermates were randomly assigned to one of the following groups: wild-type mice (n=10) that received normal AIN-76A chow; double knockout mice (n =10) that received normal AIN-76A chow; and double knockout mice (n =10) that received AIN-76A chow containing TUDCA. The animals were treated for 4 months starting at 13 months of age to coincide with the onset of clinical signs. TUDCA had no effect on weight or food intake under either treatment protocol.
# […] Immunohistochemistry was carried out with the avidin-biotin peroxidase method and at least five sections of the spinal cord were analysed per animal and per stain. […] The results were expressed as the mean ± standard deviation. […]
# Abcd1^-/Abcd2^-/- mice [2] = experiment: Hindlimb clasping test; assay type: in vivo; settings: double knockout mice with TUDCA; untreated score 1, wild type 2; Figure 3A
# Experimental: as §1
# (§3) For behavioral testing, assessment of hindlimb clasping was done by suspending mice from their tails until it reached a vertical position, but allowing the mice to grab the grill of the lid of the cage with the forelimbs, adapted from Dumser et al. cited supra. Hindlimb reflex was analysed for 10s in three consecutive trials separated by 5 min rest. […]
# (§4) Locomotor deficits in Abcd1 /Abcd2^-/- mice were evaluated using clasping, treadmill and bar cross experiments after TUDCA treatment as described (Dumser M- et al., 2007 cited supra, Launay N. et al., 2015 cited supra). […]
# Abcd1^-/Abcd2^-/- mice [3] = experiment: Treadmill test; assay type: in vivo; settings: double knockout mice, after 3 months of treatment with TUDCA; Figure 3B
# Experimental: as §1, §3, §4
# Abcd1^-/Abcd2^-/- mice [4] = experiment: Bar cross test; assay type: in vivo; settings: double knockout mice with TUDCA; Figure 3C
# Experimental: as §1, §3, §4
# [5] = Weight and food intake during treatment in chow; assay type: in vivo, mice; settings: 0.4% w/w in AIN-76A chow, either treatment protocol (3 months from 9 months; 4 months from 13 months)
# Experimental: as §2
smiles,measurement,setting,value
"C[C@H](CCC(=O)NCCS(=O)(=O)O)[C@H]1CC[C@H]2[C@@H]3[C@@H](O)C[C@@H]4C[C@H](O)CC[C@]4(C)[C@H]3CC[C@]12C [TUDCA, 3α,7β-Dihydroxy-5β-cholanoyltaurine]","ATF6, P-PERK, P-eif2α/eif2α, ATF4 and CHOP levels",Abcd1 null mice; Figure 1C,normalized
same,PDI upregulation,Abcd1 null mice; Figure 1D,prevented
same,levels of the ER chaperones GRP78 and GRP94,Abcd1 null mice; Figure 1D,normalized
same,axonal damage markers,"Abcd1^-/Abcd2^-/- mice [1]; APP and synaptophysin accumulation, Figures 2A, 2B",strikingly reduced to control levels
same,numbers of reactive astrocytes and reactive microglia,"Abcd1^-/Abcd2^-/- mice [1]; GFAP and Iba-1 staining, Figure 2A",strikingly reduced to control levels
same,median clasping score,Abcd1^-/Abcd2^-/- mice [2],1.75
same,shock times and number of shocks,Abcd1^-/Abcd2^-/- mice [3],indistinguishable from wild types
same,number of slips,Abcd1^-/Abcd2^-/- mice [4],normalized
same,time necessary to cross the bar,Abcd1^-/Abcd2^-/- mice [4],normalized
same,food intake,[5],no effect
same,weight,[5],no effect

# Source: patent publication EP3335730A1, “COMPOUNDS FOR TREATING X-LINKED ADRENOLEUKODYSTROPHY” (Fundació Institut de Recerca Biomédica de Bellvitge …, priority 2016, dated 2018)
